pIC50: −log10 of the molar value.

IC50 data for seven compounds are collected here from patent EP4786469A1, “TRIAZOLE-CONTAINING COMPOUND, AND PREPARATION METHOD AND USE THEREFOR” (Tuojie Biotech (Shanghai) Co., Ltd., priority 2023, dated 2025).

Chain of human recombinant αvβ6 protein (P06756 31-992 limits assumed): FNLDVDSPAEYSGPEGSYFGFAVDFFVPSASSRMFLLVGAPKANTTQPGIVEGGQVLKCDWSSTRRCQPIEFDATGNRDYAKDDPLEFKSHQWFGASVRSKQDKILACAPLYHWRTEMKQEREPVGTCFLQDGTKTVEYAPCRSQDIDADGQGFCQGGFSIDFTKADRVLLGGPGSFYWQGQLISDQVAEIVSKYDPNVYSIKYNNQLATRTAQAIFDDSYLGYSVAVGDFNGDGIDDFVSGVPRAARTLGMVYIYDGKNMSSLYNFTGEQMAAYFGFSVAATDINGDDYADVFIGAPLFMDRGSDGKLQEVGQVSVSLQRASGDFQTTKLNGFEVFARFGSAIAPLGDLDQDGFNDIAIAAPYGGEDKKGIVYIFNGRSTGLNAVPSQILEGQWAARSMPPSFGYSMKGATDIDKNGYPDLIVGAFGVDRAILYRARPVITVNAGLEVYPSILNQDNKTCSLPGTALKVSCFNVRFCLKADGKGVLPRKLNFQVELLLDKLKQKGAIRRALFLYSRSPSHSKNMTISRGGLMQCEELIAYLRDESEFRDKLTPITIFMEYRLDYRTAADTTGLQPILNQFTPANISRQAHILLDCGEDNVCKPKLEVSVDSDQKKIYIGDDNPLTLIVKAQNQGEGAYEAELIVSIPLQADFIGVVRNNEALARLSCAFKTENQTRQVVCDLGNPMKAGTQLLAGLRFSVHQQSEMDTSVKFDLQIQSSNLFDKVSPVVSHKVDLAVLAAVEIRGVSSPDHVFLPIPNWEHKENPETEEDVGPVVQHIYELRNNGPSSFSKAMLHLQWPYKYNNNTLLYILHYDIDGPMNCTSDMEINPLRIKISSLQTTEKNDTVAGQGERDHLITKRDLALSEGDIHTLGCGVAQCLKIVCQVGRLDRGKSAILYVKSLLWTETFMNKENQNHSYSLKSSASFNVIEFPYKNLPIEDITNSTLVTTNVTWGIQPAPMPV
Chain of human recombinant αvβ6 protein (P18564 22-707 limits assumed): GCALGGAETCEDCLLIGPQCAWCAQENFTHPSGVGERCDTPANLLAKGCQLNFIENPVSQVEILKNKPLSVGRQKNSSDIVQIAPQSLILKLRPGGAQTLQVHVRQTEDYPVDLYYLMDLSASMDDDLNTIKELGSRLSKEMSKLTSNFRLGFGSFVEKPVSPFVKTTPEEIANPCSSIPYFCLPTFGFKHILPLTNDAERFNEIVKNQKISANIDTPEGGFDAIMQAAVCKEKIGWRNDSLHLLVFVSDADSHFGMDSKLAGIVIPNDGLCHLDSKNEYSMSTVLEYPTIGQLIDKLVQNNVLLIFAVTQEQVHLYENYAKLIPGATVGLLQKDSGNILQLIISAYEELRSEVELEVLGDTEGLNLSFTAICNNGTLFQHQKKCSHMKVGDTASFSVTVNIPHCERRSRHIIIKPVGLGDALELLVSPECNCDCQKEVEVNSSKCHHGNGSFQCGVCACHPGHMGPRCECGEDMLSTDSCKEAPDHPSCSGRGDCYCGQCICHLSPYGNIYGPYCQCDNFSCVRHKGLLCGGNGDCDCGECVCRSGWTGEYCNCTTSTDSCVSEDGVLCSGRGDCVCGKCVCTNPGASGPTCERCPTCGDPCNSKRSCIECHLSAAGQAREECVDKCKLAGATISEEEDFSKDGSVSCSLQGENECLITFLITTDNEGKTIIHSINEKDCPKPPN

One experiment deals with human recombinant αvβ6 protein (Homo sapiens, UniProt P06756+P18564). Briefly: αvβ6 binding assay using fluorescence polarization (FP), competition with a fluorescently labeled RGD peptide. To be noted: 12 concentration points, highest 10 µM, read-out: αvβ6 IC50. As to the method:
αvβ6 binding assay using fluorescence polarization (FP) method The analysis was based on competition with a fluorescently labeled RGD peptide for binding to αvβ6. The binding abilities of the test compounds were evaluated and screened according to FP value changes.
The test compounds (3.5 µL) were added to a 384-well black plate. For each test compound, 12 concentration points were set. The highest concentration was 10 µM, and was serially diluted 3-fold. DMSO control wells were used to determine the maximum signal, and 500 nM compound CWHM-12 [drawing 318]
HY-18644) control wells were used as the minimum signal.Then, 3.5 µL of a 4× human recombinant αvβ6 protein working solution (Acrobiosystem) was added. After 15 min of incubation at room temperature, 7 µL of a 2× fluorescent RGD peptide solution (Sangon Biotech) was added to each well. After 1 h of incubation at room temperature, FP signals were read using Envision. GraphPad Prism was used to fit inhibition curves and calculate IC50 values.
The IC50 values (Z factor > 0.5) were calculated using the following formula: Curve fitting formula: Y = Bottom + (Top - Bottom)/(1 + 10^((LogIC50 - X) × Hill Slope)) X: logarithmic value of inhibitor concentration; Y: inhibition percentage; Bottom: minimum response; Top: maximum response; Hill Slope: curve slope. Table 1. Data on the abilities of the compounds (III-h')-(III-m') of the present disclosure to bind to αvβ6
(In general: Fluorescence polarisation rises when a labelled molecule tumbles more slowly, as on binding a larger partner.)
For the compound `[N-]=[N+]=NCCOCCOCCOCCOCCOc1ccc(-c2ccc([C@H](CC(=O)O)NC(=O)CNC(=O)CCCc3ccc4c(n3)NCCC4)cc2)c2ccccc12` [III-k'], the pIC50 is 8.64. For `[N-]=[N+]=NCCOCCOCCOCCOCCOc1ccc(-c2ccc([C@H](CC(=O)O)NC(=O)CNC(=O)CCc3ccc4c(n3)NCCC4)cc2)c2ccccc12` [III-l'], the pIC50 is 8.78. In the case of `[N-]=[N+]=NCCOCCOCCOCCOCCOc1ccc(-c2ccc([C@H](CC(=O)O)NC(=O)CNC(=O)CCCNc3cc4c(cn3)CCCC4)cc2)c2ccccc12` [III-m'], the pIC50 is 8.83. As for `Cc1ccnc(NCCCC(=O)NCC(=O)N[C@@H](CC(=O)O)c2ccc(-c3ccc(OCCOCCOCCOCCOCCN=[N+]=[N-])c4ccccc34)cc2)c1` [SM6.1-αvβ6, reference compound], the pIC50 was 8.80.

Still in this experiment, the particulars now being: read-out: αvβ6 IC50, 12 concentration points, highest 10 µM.
For the compound `Cc1ccnc(NCCOC(=O)NCC(=O)N[C@@H](CC(=O)O)c2ccc(-c3ccc(OCCOCCOCCOCCOCCN=[N+]=[N-])c4ccccc34)cc2)c1` [III-h'], the pIC50 is 9.07. As for `Cc1ccnc(NCCNC(=O)NCC(=O)N[C@@H](CC(=O)O)c2ccc(-c3ccc(OCCOCCOCCOCCOCCN=[N+]=[N-])c4ccccc34)cc2)c1` [III-i'], the pIC50 is 8.61.

With `[N-]=[N+]=NCCOCCOCCOCCOCCOc1ccc(-c2ccc([C@H](CC(=O)O)NC(=O)CNC(=O)CCCNc3nccs3)cc2)c2ccccc12` [III-j'], the pIC50 was 8.70.
